The term logD denotes lipophilicity at a set pH, counting ionised and neutral species.

Data on two molecules can be found in publication PMC4078514, “A Bombesin-Shepherdin Radioconjugate Designed for Combined Extra- and Intracellular Targeting” (Pharmaceuticals, 2014).

A short description of series [1]: LogD determination, shake flask method (n-octanol/PBS). It counts as physicochemical. The settings on record: shake-flask n-octanol/PBS pH 7.4 (1:1, 1 mL, pre-saturated); 10 µL (1 µM) radiolabeled peptide; vortexed 1 min, centrifuged 3,000 rpm 10 min; gamma counter read-out; 2-3 experiments each in quintets, mean ± SD. As to the method: The hydrophilicity of the radiolabeled peptides 12–16 was evaluated by determination of their partition coefficient between n-octanol and phosphate buffered saline (PBS, pH 7.4) using the shake flask method. In brief, 10 µL (1 µM) of radiolabeled peptides 12–16 were added to a pre-saturated solution of n-octanol and PBS (1:1, 1 mL) and the tubes were vortexed (1 min) and centrifuged (3,000 rpm, 10 min). Aliquots of 100 µL of each phase were radiometrically measured in a gamma counter and the logD values were calculated by the logarithm of the ratio between the radioactive counts in the octanol fraction and the radioactive counts in the PBS fraction. The experiment was performed 2–3 times, each in quintets, and results are reported by mean values ± standard deviation (SD).

The test system of series [2] is GRP-r overexpressing PC-3 cells. Briefly: Internalization assay in PC-3 cells. Format: cell-based, human. As to conditions: 0.25 pmol, 1.5-2.0 kBq/well, within 30-60 min, percentage of applied dose normalized to 10^6 cells, n = 2-3 in triplicates, approximate. As to the method: Cell culturing of human prostate adenocarcinoma (PC-3) cells and in vitro assays (internalization, receptor saturation binding, and externalization) were performed as previously described and are thus described only in brief.
For the determination of cellular uptake, PC-3 cells were incubated with the radiolabeled peptides [^99mTc(CO)3(L)] (L = 14–16; 0.25 pmol; 1.5–2.0 kBq/well) for different time points to allow binding and internalization. Non-specific receptor binding and internalization was determined by incubating the cells with excess of natural bombesin(1–14) as a receptor blocking agent. At each time point, the supernatant was collected, representing the free radiopeptide fraction. The cell surface receptor bound fraction was obtained by treating the cells with an acidic saline glycine buffer (100 mM NaCl, 50 mM glycine, pH 2.8; 2 times for 5 min, on ice). The internalized fraction was determined by cell lysis with 1 M NaOH (10 min). Fractions of free, receptor-bound, and internalized radiopeptide were radiometrically measured in the gamma counter and calculated as percentage of applied dose normalized to 10^6 cells for all time points (n = 2–3 in triplicates, reported by means ± SD). […]

The target in another series is Hsp90. As to conditions: reported high affinity; read-out: affinity towards Hsp90; cited from earlier work.

As for `CCCC[C@H](NC(=O)[C@H](CC(C)C)NC(=O)[C@H](Cc1c[nH]cn1)NC(=O)CNC(=O)[C@@H](NC(=O)[C@H](C)NC(=O)[C@H](Cc1c[nH]c2ccccc12)NC(=O)[C@H](CCC(N)=O)NC(=O)CCNC(=O)CCNC(=O)CCNC(=O)Cn1cc(CN[C@@H](CCCCNC(C)=O)C(=O)O)nn1)C(C)C)C(N)=O` [[^99mTc(CO)3(16)], metal not drawn], in series [1], the logD is -0.44 ± 0.07. The applied radioactivity internalized in series [2] is 25%–30%. With KHSSG [shepherdin(79–83)], the Kd at Hsp90 was 0.08 µM.
